Results on one molecule are retold here after patent US11945821B1, “5-substituted aminopyrazino[2′,1′:2,3]imidazo[4,5-C][2,7]naphthyridine compounds as CK2 inhibitors” (KING FAISAL UNIVERSITY, priority 2023, dated 2024).

One assay deals with MIAPaCa-2 (pancreas). Put plainly: In vitro cytotoxic activity (MTT) assay, MIAPaCa-2. The class given is cell-based. As to conditions: Homo sapiens, MIA PaCa-2; MIAPaCa-2 cells, exposed for 96 hours; read-out: IC50, 50% inhibition of cell proliferation, MIAPaCa-2 (pancreas). Here is the method:
(§1) Compounds 1-12 were screened for their in vitro cytotoxic activity utilizing a 3-(4,5-dimethyl-thiazol-2-yl)-2,5-diphenyltetrazolium bromide (MTT) assay against selected cancer human cell lines consisting of PC3 (prostate), HCT116 (colon), A375 (melanoma), H1299 (lung), MIAPaCa-2 (pancreas), HL60 (leukemia), MCF7 (breast), MDA-MB-231 (breast) (T. Mosmann, J. Immunol. Meth., 1983, 65, 55-63). The cells were cultured at 37° C. in RMPI1640 medium supplemented with 10% fetal bovine serum, 50 IU/mL penicillin, and 50 μg/mL streptomycin in a 5% CO2 incubator. All cells were sub-cultured 3 times/week by trypsinisation. Viable cells were seeded and allowed to adhere for 12 h before a test drug was added in 96-well plates at an initial density of 1.0×10^5 cells/mL. Tumour cell lines were separately exposed to various concentrations of the tested compounds followed by incubation at a temperature of 37° C. during 96 h inside a medium of fresh RMPI 1640. Cells were subsequently incubated at 37° C. using MTT at 0.5 mg/mL during 4 h. After removal of supernatant, formazan crystals were dissolved in isopropanol and the optical density was measured at 570 nm. CX-4945 was used as a positive control.

The subject of the next assay is MDA-MB-231 (breast). Put plainly: In vitro cytotoxic activity (MTT) assay, MDA-MB-231. The class given is cell-based. As to conditions: Homo sapiens; MDA-MB-231 cells, exposed for 96 hours; read-out: IC50, 50% inhibition of cell proliferation, MDA-MB-231 (breast). As to the method:
as §1

In the next assay the test system is HCT116 (colon). The assay is described as follows: In vitro cytotoxic activity (MTT) assay, HCT116. Format: cell-based. As to conditions: Homo sapiens, HCT-116; HCT116 cells, exposed for 96 hours; read-out: IC50, 50% inhibition of cell proliferation, HCT116 (colon). Here is the method: as §1
The test system of another assay is H1299 (lung). Put plainly: In vitro cytotoxic activity (MTT) assay, H1299. The class given is cell-based. As to conditions: Homo sapiens, NCI-H1299; H1299 cells, exposed for 96 hours; read-out: IC50, 50% inhibition of cell proliferation, H1299 (lung). As to the method: as §1
A further assay relates to PC3 (prostate). The assay is described as follows: In vitro cytotoxic activity (MTT) assay, PC3. Format: cell-based. As to conditions: Homo sapiens, PC-3; PC3 cells, exposed for 96 hours; read-out: IC50, 50% inhibition of cell proliferation, PC3 (prostate). As to the method:
as §1

The test system of another assay is A375 (melanoma). Put plainly: In vitro cytotoxic activity (MTT) assay, A375. Format: cell-based. As to conditions: Homo sapiens, A-375; A375 cells, exposed for 96 hours; read-out: IC50, 50% inhibition of cell proliferation, A375 (melanoma). Here is the method: as §1
The test system of a further assay is MCF7 (breast). The assay is described as follows: In vitro cytotoxic activity (MTT) assay, MCF7. Format: cell-based. As to conditions: Homo sapiens; MCF7 cells, exposed for 96 hours; read-out: IC50, 50% inhibition of cell proliferation, MCF7 (breast). Here is the method: as §1
The target of assay [1] is T1, recombinant human CK2 (RRββ-holoenzyme) (Homo sapiens, UniProt P68400).
T1 construct: purchased Millipore
T1 sequence (P68400 whole entry): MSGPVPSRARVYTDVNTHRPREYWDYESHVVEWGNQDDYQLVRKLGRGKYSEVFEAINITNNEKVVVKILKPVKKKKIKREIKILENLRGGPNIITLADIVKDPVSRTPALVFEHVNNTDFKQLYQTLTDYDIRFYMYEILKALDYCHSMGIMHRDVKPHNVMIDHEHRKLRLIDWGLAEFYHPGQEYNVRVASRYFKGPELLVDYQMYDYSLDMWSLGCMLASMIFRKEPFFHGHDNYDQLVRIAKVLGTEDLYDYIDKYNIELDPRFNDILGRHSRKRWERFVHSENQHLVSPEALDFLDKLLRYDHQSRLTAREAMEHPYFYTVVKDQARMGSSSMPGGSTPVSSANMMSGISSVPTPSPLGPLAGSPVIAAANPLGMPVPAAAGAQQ
T1 sequence (P67870 whole entry partner): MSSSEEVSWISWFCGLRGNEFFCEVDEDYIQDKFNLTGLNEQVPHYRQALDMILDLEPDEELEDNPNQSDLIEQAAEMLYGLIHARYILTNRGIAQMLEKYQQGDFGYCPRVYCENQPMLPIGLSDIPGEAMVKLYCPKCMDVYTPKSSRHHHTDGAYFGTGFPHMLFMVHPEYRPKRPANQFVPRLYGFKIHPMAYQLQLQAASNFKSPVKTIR
The assay is described as follows: CK2 Kinase Assay (33P-ATP, filter plate). Format: biochemical. As to conditions: final ATP 15 μM, 10 min at 30° C., eight concentrations; read-out: protein kinase CK2 IC50. As to the method: CK2 Kinase Assay was conducted using the protocol as described in Pierre F. et al; J. Med. Chem. 2011, 54, 635-654. The tested compounds in aqueous solution were added at a volume of 10 μL to a reaction mixture comprising 10 μL of assay dilution buffer (ADB; 20 mM MOPS, pH 7.2, 25 mM β-glycerol phosphate, 5 mM EGTA, 1 mM sodium orthovanadate, and 1 mM dithiothreitol), 10 μL of substrate peptide (RRRDDDSDDD, dissolved in ADB at a concentration of 1 mM), 10 μL of recombinant human CK2 (RRββ-holoenzyme, 25 ng dissolved in ADB; Millipore). Reactions were initiated by the addition of 10 μL of ATP solution (90% 75 mMMgCl2, 75 μM ATP (final ATP concentration:15 μM) dissolved in ADB; 10% [γ-33P] ATP (stock 1 mCi/100 μL; 3000 Ci/mmol (Perkin-Elmer) and maintained for 10 min at 30° C. The reactions were quenched with 100 μL of 0.75% phosphoric acid and then transferred to and filtered through a phosphor cellulose filter plate (Millipore). After washing each well five times with 0.75% phosphoric acid, the plate was dried under vacuum for 5 min and, following the addition of 15 μL of scintillation fluid to each well, the residual radioactivity was measured using a Wallac luminescence counter. The IC50 values were derived from eight concentrations of test inhibitors.

The subject of a further assay is HL60 (leukemia). The assay is described as follows: In vitro cytotoxic activity (MTT) assay, HL60. The class given is cell-based. As to conditions: Homo sapiens, HL-60; HL60 cells, exposed for 96 hours; read-out: IC50, 50% inhibition of cell proliferation, HL60 (leukemia). As to the method: as §1

`Clc1cccc(Nc2nc3c(nc4cnccn43)c3ccncc23)c1` [Example 1, N-(3-chlorophenyl)pyrazino[2′,1′:2.3]imidazo[4,5-c][2.7]naphthyridin-5-amine]: the IC50 in the assay on MIAPaCa-2 (pancreas) amounted to 1.2 µM; in the assay with MDA-MB-231 (breast), 4.1 µM; in the assay with HCT116 (colon), 2.1 µM; in the assay with H1299 (lung) it was 1.9 µM; with PC3 (prostate), 1.8 µM; in the assay with A375 (melanoma), 3.3 µM. In addition, the IC50 was found to be 4.8 µM with MCF7 (breast), 0.022 µM in [1] and 3.9 µM in the assay with HL60 (leukemia).
